Experimental data: patent US20060079512A1, “Dibenzodiazepinone analogues, processes for their production and their use as pharmaceuticals” (Ecopia BioSciences, Inc., priority 2003, published 2006)
One block for each compound: values may come before it.

What was measured:
Type in all cases: cell-based
[1] = system: HT-29, SF-268, PC-3, MDA-MB-231; test: Average GI50 over the four cell lines, method (b); conditions: for GI50: values > 30 not considered; for anticancer activity compared with Compound 1: four cell lines
Experimental: (§1) Row H was filled wih medium only (150 μL, negative control-medium).

[2] = system: SF268 (CNS); test: In vitro cytotoxic activity (GI50), method (b), propidium iodide; conditions: Homo sapiens, SF-268, 96 hrs
Experimental: as §1

[3] = system: HT-29 (colorectal carcinoma); test: as above; conditions: Homo sapiens, 96 hrs
Experimental: as §1

[4] = system: PC-3 (prostate adenocarcinoma); test: as above; conditions: 96 hrs
Experimental: as §1

[5] = system: MDA-MB-231 (mammary gland adenocarcinoma); test: as above; conditions: Homo sapiens, 96 hrs
Experimental: as §1

GI50 [1]: 16.2 µM
SMILES: COC(C)(C)CCCC(C)(CCC/C(C)=C/CN1C(=O)c2cccc(O)c2Nc2c(O)cc(O)cc21)OC (stereo not drawn) [Compound 84, 10-(7,11-dimethoxy-3,7,11-trimethyl-2-dodecenyl)-4,6,8-trihydroxy-5,10-dihydro-dibenzo[b,e][1,4]diazepin-11-one]
GI50 [2]: 3.49 µM
GI50 [3]: 21.5 µM
GI50 [4]: 16.4 µM
GI50 [5]: 23.5 µM

GI50 [1]: 1.82 µM
SMILES: CC(C)=CCC/C(C)=C/CC/C(C)=C/CN1C(=O)c2cccc(O)c2Nc2c1cc(O)c(Br)c2O [Compound 97, 10-(farnesyl)-7-bromo-4,6,8-trihydroxy-5,10-dihydro-dibenzo[b,e][1,4]diazepin-11-one]
anticancer activity compared with Compound 1 [1]: generally more active than Compound 1
GI50 [2]: 2.04 µM
GI50 [3]: 2.02 µM
GI50 [4]: 1.19 µM
GI50 [5]: 2.02 µM

GI50 [1]: 13.2 µM
SMILES: COC(C)(C)CCC/C(C)=C/CC/C(C)=C/CN1C(=O)c2cccc(O)c2Nc2c(O)cc(O)cc21 [Compound 82, 10-(11-methoxy-3,7,11-trimethyl-2,6-dodecadienyl)-4,6,8-trihydroxy-5,10-dihydro-dibenzo[b,e][1,4]diazepin-11-one]
GI50 [2]: 4.75 µM
GI50 [3]: 23.6 µM
GI50 [4]: 13.4 µM
GI50 [5]: 11 µM

GI50 [1]: 0.49 µM
SMILES: C/C(=C\CN1C(=O)c2cccc(O)c2N(C)c2c(O)cc(O)cc21)CCCC(C)CCCC(C)C (stereo not drawn) [Compound 100, 10-(3,7,11-trimethyl-2-dodecenyl)-4,6,8-trihydroxy-5-methyl-5,10-dihydro-dibenzo[b,e][1,4]diazepin-11-one]
anticancer activity compared with Compound 1 [1]: better anticancer activity than Compound 1
GI50 [2]: 0.23 µM
GI50 [3]: 0.69 µM
GI50 [4]: 0.65 µM
GI50 [5]: 0.37 µM

GI50 [1]: 16 µM
SMILES: CC(C)=CCCC1(C)OC1CC/C(C)=C/CN1C(=O)c2cccc(O)c2Nc2c(O)cc(O)cc21 (stereo not drawn) [Compound 17, 10-(3,7,11-trimethyl-6,7-epoxydodeca-2,10-dienyl)-4,6,8-trihydroxy-5,10-dihydro-dibenzo[b,e][1,4]diazepin-11-one]
GI50 [2]: 13.4 µM
GI50 [3]: > 30 µM
GI50 [4]: 18.7 µM
GI50 [5]: > 30 µM

GI50 [1]: 1.14 µM
SMILES: COC(C)(CCC=C(C)C)CCC/C(C)=C/CN1C(=O)c2cccc(O)c2N(C)c2c(O)cc(O)cc21 (stereo not drawn) [Compound 80, 10-(7-methoxy-3,7,11-trimethyldodeca-2,10-dienyl)-4,6,8-trihydroxy-5-methyl-5,10-dihydro-dibenzo[b,e][1,4]diazepin-11-one]
anticancer activity compared with Compound 1 [1]: better anticancer activity than Compound 1
GI50 [2]: 0.33 µM
GI50 [3]: 1.43 µM
GI50 [4]: 1.8 µM
GI50 [5]: 1.02 µM

GI50 [1]: 0.21 µM
SMILES: CC(C)CCCC(C)CCCC(C)CCN1C(=O)c2cccc(O)c2N(C)c2c(O)cc(O)cc21 (stereo not drawn) [Compound 78, 10-(3,7,11-trimethyldodecyl)-4,6,8-trihydroxy-5-methyl-5,10-dihydro-dibenzo[b,e][1,4]diazepin-11-one]
anticancer activity compared with Compound 1 [1]: better anticancer activity than Compound 1
GI50 [2]: 0.07 µM
GI50 [3]: 0.29 µM
GI50 [4]: 0.23 µM
GI50 [5]: 0.24 µM

GI50 [1]: 17.5 µM
SMILES: CC(C)=CCCC(C)(O)CCC/C(C)=C/CN1C(=O)c2cccc(O)c2Nc2c(O)cc(O)cc21 (stereo not drawn) [Compound 89, 10-(7-hydroxy-3,7,11-trimethyldodeca-2,10-dienyl)-4,6,8-trihydroxy-5,10-dihydro-dibenzo[b,e][1,4]diazepin-11-one]
GI50 [2]: 13.7 µM
GI50 [3]: > 30 µM
GI50 [4]: 13.5 µM
GI50 [5]: 25.3 µM

GI50 [1]: 12.3 µM
SMILES: COC(C)(CCC=C(C)C)CCC/C(C)=C/CN1C(=O)c2cccc(O)c2Nc2c(O)cc(O)cc21 (stereo not drawn) [Compound 83]
GI50 [2]: 9.74 µM
GI50 [3]: 19.6 µM
GI50 [4]: 13.2 µM
GI50 [5]: 6.71 µM

GI50 [1]: 13.7 µM
SMILES: CC(=O)NC(C)(CCC=C(C)C)CCC/C(C)=C/CN1C(=O)c2cccc(O)c2Nc2c(O)cc(O)cc21 (stereo not drawn) [Compound 92, 10-(7-acetamido-3,7,11-trimethyldodeca-2,10-dienyl)-4,6,8-trihydroxy-5,10-dihydro-dibenzo[b,e][1,4]diazepin-11-one]
GI50 [2]: 13.5 µM
GI50 [3]: > 30 µM
GI50 [4]: 16.6 µM
GI50 [5]: 11.1 µM

GI50 [1]: 28.2 µM
SMILES: CC(C)=CCC/C(C)=C/CC/C(C)=C/CN1C(=O)c2cccc(OC(=O)c3ccccc3)c2Nc2c(OC(=O)c3ccccc3)cc(OC(=O)c3ccccc3)cc21 [Compound 105, 4,6,8-tribenzoyloxy-10-farnesyl-5,10-dihydro-dibenzo[b,e][1,4] diazepin-11-one]
GI50 [2]: 28.2 µM
GI50 [3]: > 30 µM
GI50 [4]: > 30 µM
GI50 [5]: > 30 µM

GI50 [1]: 9.98 µM
SMILES: CCC(C)N1c2c(O)cccc2C(=O)N(C/C=C(\C)CC/C=C(\C)CCC=C(C)C)c2cc(O)cc(O)c21 (stereo not drawn) [Compound 77, 10-Farnesyl-4,6,8-trihydroxy-5-sec-butyl-5,10-dihydro-dibenzo[b,e][1,4]diazepin-11-one]
GI50 [2]: 3.31 µM
GI50 [3]: 13.9 µM
GI50 [4]: 17.1 µM
GI50 [5]: 5.62 µM

GI50 [1]: 0.54 µM
SMILES: [2H]C([2H])([2H])N1c2c(O)cccc2C(=O)N(C/C=C(\C)CC/C=C(\C)CCC=C(C)C)c2cc(O)cc(O)c21 [Compound 98, 10-Farnesyl-4,6,8-trihydroxy-5-(trideuteriomethyl)-5,10-dihydro-dibenzo[b,e][1,4]diazepin-11-one]
anticancer activity compared with Compound 1 [1]: better anticancer activity than Compound 1
GI50 [2]: 0.16 µM
GI50 [3]: 0.69 µM
GI50 [4]: 0.82 µM
GI50 [5]: 0.51 µM

GI50 [1]: 1.53 µM
SMILES: CCN1c2c(O)cccc2C(=O)N(C/C=C(\C)CC/C=C(\C)CCC=C(C)C)c2cc(O)cc(O)c21 [Compound 14, 10-farnesyl-4,6,8-trihydroxy-5-ethyl-5,10-dihydro-dibenzo[b,e][1,4]diazepin-11-one]
GI50 [2]: 0.76 µM
GI50 [3]: 2.04 µM
GI50 [4]: 1.15 µM
GI50 [5]: 2.16 µM

GI50 [1]: 1.63 µM
SMILES: CCN1c2c(O)cccc2C(=O)N(CC=C(C)CCCC(C)(CCCC(C)(C)OC)OC)c2cc(O)cc(O)c21 (stereo not drawn) [Compound 87, 10-(7,11-dimethoxy-3,7,11-trimethyl-2-dodecenyl)-4,6,8-trihydroxy-5-ethyl-5,10-dihydro-dibenzo[b,e][1,4]diazepin-11-one]
anticancer activity compared with Compound 1 [1]: better anticancer activity than Compound 1
GI50 [2]: 0.91 µM
GI50 [3]: 1.83 µM
GI50 [4]: 1.39 µM
GI50 [5]: 2.4 µM

SMILES: C/C(=C\CN1C(=O)c2cccc(O)c2Nc2c(O)cc(O)cc21)CC/C=C(\C)CCC1OC1(C)C (stereo not drawn) [Compound 18]
GI50 [2]: 7.45 µM
GI50 [3]: > 30 µM
GI50 [4]: > 30 µM
GI50 [5]: > 30 µM

GI50 [1]: 1.55 µM
SMILES: CCCCCCN1c2c(O)cccc2C(=O)N(C/C=C(\C)CC/C=C(\C)CCC=C(C)C)c2cc(O)cc(O)c21 [Compound 67, 10-farnesyl-4,6,8-trihydroxy-5-n-hexyl-5,10-dihydro-dibenzo[b,e][1,4]diazepin-11-one]
anticancer activity compared with Compound 1 [1]: better anticancer activity than Compound 1
GI50 [2]: 0.53 µM
GI50 [3]: 2.44 µM
GI50 [4]: 1.33 µM
GI50 [5]: 1.92 µM

GI50 [1]: 1.4 µM
SMILES: CCCCN1c2c(O)cccc2C(=O)N(C/C=C(\C)CC/C=C(\C)CCC=C(C)C)c2cc(O)cc(O)c21 [Compound 64, 10-farnesyl-4,6,8-trihydroxy-5-n-butyl-5,10-dihydro-dibenzo[b,e][1,4]diazepin-11-one]
anticancer activity compared with Compound 1 [1]: better anticancer activity than Compound 1
GI50 [2]: 0.56 µM
GI50 [3]: 2.5 µM
GI50 [4]: 1.14 µM
GI50 [5]: 1.39 µM

GI50 [1]: 1.72 µM
SMILES: CCN1c2c(O)cccc2C(=O)N(C/C=C(\C)CC/C=C(\C)CCCC(C)(C)OC)c2cc(O)cc(O)c21 [Compound 85, 10-(11-methoxy-3,7,11-trimethyl-2,6-dodecadienyl)-4,6,8-trihydroxy-5-ethyl-5,10-dihydro-dibenzo[b,e][1,4]diazepin-11-one]
anticancer activity compared with Compound 1 [1]: better anticancer activity than Compound 1
GI50 [2]: 1.73 µM
GI50 [3]: 1.89 µM
GI50 [4]: 1.08 µM
GI50 [5]: 2.19 µM

GI50 [1]: 8.47 µM
SMILES: CCOC(=O)CN1c2c(O)cccc2C(=O)N(C/C=C(\C)CC/C=C(\C)CCC=C(C)C)c2cc(O)cc(O)c21 [Compound 101, (10-Farnesyl-4,6,8-trihydroxy-5,10-dihydrodibenzo[b,e][1,4]diazepin-11-on-5-yl)acetic acid ethyl ester]
GI50 [2]: 3.27 µM
GI50 [3]: 18.2 µM
GI50 [4]: 8.73 µM
GI50 [5]: 3.67 µM

GI50 [1]: 1.74 µM
SMILES: CCCN1c2c(O)cccc2C(=O)N(C/C=C(\C)CC/C=C(\C)CCC=C(C)C)c2cc(O)cc(O)c21 [Compound 63, 10-farnesyl-4,6,8-trihydroxy-5-n-propyl-5,10-dihydro-dibenzo[b,e][1,4]diazepin-11-one]
anticancer activity compared with Compound 1 [1]: better anticancer activity than Compound 1
GI50 [2]: 0.89 µM
GI50 [3]: 2.57 µM
GI50 [4]: 1.25 µM
GI50 [5]: 2.27 µM
